Test results reported in paper PMC10018782, “Citrus β-carotene hydroxylase 2 (BCH2) participates in xanthophyll synthesis by catalyzing the hydroxylation of β-carotene and compensates for BCH1 in citrus carotenoid metabolism” (Horticulture Research, 2022).

Experiments:
Experiment in all cases: functional complementation in beta-carotene-accumulating E. coli, HPLC of carotenoids
Type in all cases: cell-based
Conditions in all cases: E. coli BL21(DE3) with pACCAR16ΔcrtX, 16 °C, 16 h
[1] = biological target: T1, CsBCH2b (Citrus sinensis, UniProt A0ACB8LPZ5)
T1 construct: gene KPL71_006397; full ORF in pHIS8 (His tag), E. coli BL21(DE3); allele found in pummelo and sweet orange, two non-synonymous sites versus CsBCH2a

[2] = biological target: T2, CsBCH1 (Citrus sinensis, UniProt Q0QVY5)
T2 construct: gene Chyb; full ORF in pHIS8 (His tag), E. coli BL21(DE3)
T2 sequence (Q0QVY5 1-311): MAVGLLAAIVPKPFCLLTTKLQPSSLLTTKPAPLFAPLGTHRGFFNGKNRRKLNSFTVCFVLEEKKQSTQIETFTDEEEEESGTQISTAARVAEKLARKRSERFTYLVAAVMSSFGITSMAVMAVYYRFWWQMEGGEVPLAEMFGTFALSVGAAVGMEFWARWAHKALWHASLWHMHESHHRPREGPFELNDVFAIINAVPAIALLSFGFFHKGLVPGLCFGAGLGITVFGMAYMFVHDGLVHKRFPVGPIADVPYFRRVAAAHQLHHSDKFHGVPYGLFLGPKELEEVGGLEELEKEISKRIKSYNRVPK

[3] = biological target: T3, CsBCH2a (Citrus sinensis, UniProt A0ACB8LPZ5)
T3 construct: gene KPL71_006397; full ORF in pHIS8 (His tag), E. coli BL21(DE3); allele identical in mandarin and sweet orange, two non-synonymous sites versus CsBCH2b
T3 sequence (A0ACB8LPZ5 entry or part of it): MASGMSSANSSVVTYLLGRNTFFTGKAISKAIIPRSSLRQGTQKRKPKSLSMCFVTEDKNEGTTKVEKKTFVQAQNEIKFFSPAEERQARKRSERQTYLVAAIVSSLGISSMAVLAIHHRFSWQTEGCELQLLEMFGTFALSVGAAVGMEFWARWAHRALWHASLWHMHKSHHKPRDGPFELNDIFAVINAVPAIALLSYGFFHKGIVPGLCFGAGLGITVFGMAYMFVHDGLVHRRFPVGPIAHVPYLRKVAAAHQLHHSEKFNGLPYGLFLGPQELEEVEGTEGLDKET

T1 sequence (A0ACB8LPZ5 entry or part of it): as above

| Compound | functional complementation in beta-carotene-accumulating E. coli, HPLC of carote [1] | functional complementation in beta-carotene-accumulating E. coli, HPLC of carote [2] | functional complementation in beta-carotene-accumulating E. coli, HPLC of carote [3] | functional complementation in beta-carotene-accumulating E. coli, HPLC of carote ([2]; intermediate formed in the cells, hydroxylated on to zeaxanthin) |
| --- | --- | --- | --- | --- |
| CC1=C(/C=C/C(C)=C/C=C/C(C)=C/C=C/C=C(C)/C=C/C=C(C)/C=C/C2=C(C)CCCC2(C)C)C(C)(C)CCC1 [β-carotene] | CsBCH2a and CsBCH2b hydroxylated β-carotene to generate only β-cryptoxanthin in E. coli | CsBCH1 effectively hydroxylated the two β-rings of β-carotene | CsBCH2a and CsBCH2b hydroxylated β-carotene to generate only β-cryptoxanthin in E. coli |  |
| CC1=C(/C=C/C(C)=C/C=C/C(C)=C/C=C/C=C(C)/C=C/C=C(C)/C=C/C2=C(C)C[C@@H](O)CC2(C)C)C(C)(C)CCC1 [β-cryptoxanthin] |  |  |  | mono-hydroxylated intermediate β-cryptoxanthin and the di-hydroxylated product zeaxanthin |
